Measurements published in patent US20230065371A1, “PROCESS FOR MANUFACTURING SOLID NEUTRAL AMINO ACID SALTS OF POLYUNSATURATED FATTY ACIDS” (SILICYCLE INC., priority 2020, published 2023).

Assay: Oxidative status / stability (PV, AV, Totox; CDR FoodLab Junior analyzer), storage with closed lids at room temperature
Format: physicochemical
Conditions: for TOTOX: Totox=2*PV+AV
Procedure: The final product in powder form is isolated by evaporating said first and second organic solvents and water from the reaction mixture to recover said basic amino acid salts of PUFAs. Preferably, said evaporation step is carried under reduced pressure between about 0° C.-70° C. depending on the properties of the equipment used. The oxidative status of the obtained final product described herein is quantified by peroxide value (PV), anisidine value (AV) and Totox value. PV is a measure of the level of the primary oxidation products (lipid hydroperoxides) in the product, which is specified in milliequivalents O2 per kg of sample, while the AV is an unspecific measure of saturated and unsaturated carbonyl compounds. Totox is calculated by the equation Totox=2*PV+AV.
The comparison of oxidative status of amino acid salts of omega-3, starting material in ester form and fish oil in free acid form are assessed by measuring the PV and AV, then all the samples are subjected to the same oxidizing condition over a certain period of time, followed by the measuring PV and AV of the samples. The oxidizing conditions are selected from one of them as below: 1) Storage in closed containers at atmospheric condition for 7 months; or 2) Storage in loose closed containers exposed to air at 40° C. for 1 month.
Food Lab Analyzer: Among several techniques known in the art for determining the oxidative levels of a sample. The CDR FoodLab® Junior analyzer is used herein for determining PV and AV. The procedures are as described below:
The solid product 0.5 g was dissolved in 2 ml of MeOH and HCl solution with the ratio of 1:10 (v/v). The mixture was stirred for 5 minutes, followed by the addition of 5 ml of water. The mixture was extracted with 3 ml of hexane containing 100 ppm butylhydroxytoluene (BHT). The organic layer was dried over MgSO4, filtrated and evaporated under reduced pressure at the temperature of 0-70° C. to get the fish oil in free acid form, which is evaluated with the CDR FoodLab® Junior analyzer to get anisidine and peroxide values using the CDR FoodLab® Junior analyzer.
The molar ratio of EPA, NaOH and glycine was 1:1:1. The mixture was stirred at atmospheric condition (i.e. atmospheric pressure and room temperature) for 5 minutes to obtain a suspension solution. 100 mL of acetonitrile was added to further precipitate the glycine salt. […] About 8 g of EPA-gly was stored in a 20 ml of clear vial with a diameter of 27 mm, which was placed with closed lids on the bench at room temperature for the stability examination for 60 days.

[1] = Table 1, time 60 d, closed lids, room temperature
[2] = salt as generated, after roughing pump for 1 day

Compound	AV (Table 1, time 1 d) [A/g]	PV (Table 1, time 1 d) [meq O2/Kg]	AV [1] [A/g]	PV [1] [meq O2/Kg]	TOTOX [1]	PV [2] [meqO2/kg]	TOTOX (Table 1, time 1 d)	AV [2] [A/g]
CC/C=C\C/C=C\C/C=C\C/C=C\C/C=C\C/C=C\CCC(=O)O.NCC(=O)O [DHA-gly, glycine salt of docosahexaenoic acid]	>100	9.71	7.4	1.92	11.24	9.71	–	–
CC/C=C\C/C=C\C/C=C\C/C=C\C/C=C\CCCC(=O)O.NCC(=O)O [EPA-gly, glycine salt of eicosapentaenoic acid]	14.6	29.9	<0.5	1.19	2.38	29.9	74.4	14.6
